According to PubChem BioAssay AID1845212 (Molecular Pharmacology Branch, DTP, NCI, 2023):
Active and inactive are the calls of the source. The calls were made as follows: active = viability on the fitted dose curve at most 10% of control; inactive = the rest.

Tested on: NCI-H719 tumor spheroids, viability
Assay: Anticancer human tumor NCI-H719 cell line growth inhibition;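 as to IC50: spheroids exposed to compounds for seven days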;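 as to viability, T/C: spheroids exposed to compounds for seven days; percent viability relative to DMSO vehicle control as 100%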
Conditions: spheroids with HUVEC and MSC; for IC50: curve of first compound; for viability, T/C: stronger effect = lower value
Outline: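 Single agents and combinations were tested on spheroids built from tumor cells plus HUVEC and hMSC, at half-log dilutions starting at or near clinical Cmax, else 10 microM; final DMSO 0.25% (v/v).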

[1] = second compound 0.003 µM, first compound 0.0316 µM
[2] = second compound 0.003 µM, first compound 0.1 µM
[3] = second compound 0.003 µM, first compound 0.316 µM
[4] = second compound 0.003 µM, first compound 1 µM
[5] = second compound 0.003 µM, first compound 3.16 µM
[6] = second compound 0.003 µM, first compound 10 µM
[7] = second compound 0.00949 µM, first compound 0.0316 µM
[8] = second compound 0.00949 µM, first compound 0.1 µM
[9] = second compound 0.00949 µM, first compound 0.316 µM
[10] = second compound 0.00949 µM, first compound 1 µM
[11] = second compound 0.00949 µM, first compound 3.16 µM
[12] = second compound 0.00949 µM, first compound 10 µM
[13] = second compound 0.03 µM, first compound 0.0316 µM
[14] = second compound 0.03 µM, first compound 0.1 µM
[15] = second compound 0.03 µM, first compound 0.316 µM
[16] = second compound 0.03 µM, first compound 1 µM
[17] = second compound 0.03 µM, first compound 3.16 µM
[18] = second compound 0.03 µM, first compound 10 µM
[19] = second compound 0.0949 µM, first compound 0.0316 µM
[20] = second compound 0.0949 µM, first compound 0.1 µM
[21] = second compound 0.0949 µM, first compound 0.316 µM
[22] = second compound 0.0949 µM, first compound 1 µM
[23] = second compound 0.0949 µM, first compound 3.16 µM
[24] = second compound 0.0949 µM, first compound 10 µM
[25] = second compound 0.3 µM, first compound 0.0316 µM
[26] = second compound 0.3 µM, first compound 0.1 µM
[27] = second compound 0.3 µM, first compound 0.316 µM
[28] = second compound 0.3 µM, first compound 1 µM
[29] = second compound 0.3 µM, first compound 3.16 µM
[30] = second compound 0.3 µM, first compound 10 µM

## Cc1cc(C)c(CNC(=O)c2cc(-c3ccc(CN4CCOCC4)cc3)cc3c2cnn3C2CCCC2)c(=O)[nH]1 + Cn1nnc2c(C(N)=O)ncn2c1=O
Second compound 1 µM
  IC50: > 10000 nM
Second compound 3.16 µM
  IC50: > 10000 nM
Second compound 10 µM
  IC50: > 10000 nM
Second compound 31.6 µM
  IC50: > 10000 nM
Second compound 100 µM
  IC50: > 10000 nM
Second compound 1 µM, first compound 0.0316 µM
  viability, T/C: 96.9%
Second compound 1 µM, first compound 0.1 µM
  viability, T/C: 105%
Second compound 1 µM, first compound 0.316 µM
  viability, T/C: 100%
Second compound 1 µM, first compound 1 µM
  outcome: inactive
Second compound 1 µM, first compound 3.16 µM
  viability, T/C: 94%
Second compound 1 µM, first compound 10 µM
  viability, T/C: 76.5%
Second compound 3.16 µM, first compound 0.0316 µM
  viability, T/C: 105%
Second compound 3.16 µM, first compound 0.1 µM
  viability, T/C: 102%
Second compound 3.16 µM, first compound 0.316 µM
  viability, T/C: 108%
Second compound 3.16 µM, first compound 1 µM
  viability, T/C: 107%
Second compound 3.16 µM, first compound 3.16 µM
  viability, T/C: 92.2%
Second compound 3.16 µM, first compound 10 µM
  viability, T/C: 82.2%
Second compound 10 µM, first compound 0.0316 µM
  viability, T/C: 105%
Second compound 10 µM, first compound 0.1 µM
  outcome: inactive
Second compound 10 µM, first compound 0.316 µM
  viability, T/C: 108%
Second compound 10 µM, first compound 1 µM
  viability, T/C: 110%
Second compound 10 µM, first compound 3.16 µM
  viability, T/C: 94.3%
Second compound 10 µM, first compound 10 µM
  viability, T/C: 94.5%
Second compound 31.6 µM, first compound 0.0316 µM
  viability, T/C: 113%
Second compound 31.6 µM, first compound 0.1 µM
  viability, T/C: 119%
Second compound 31.6 µM, first compound 0.316 µM
  viability, T/C: 123%
Second compound 31.6 µM, first compound 1 µM
  viability, T/C: 108%
Second compound 31.6 µM, first compound 3.16 µM
  viability, T/C: 94.6%
Second compound 31.6 µM, first compound 10 µM
  viability, T/C: 85.7%
Second compound 100 µM, first compound 0.0316 µM
  viability, T/C: 101%
Second compound 100 µM, first compound 0.1 µM
  viability, T/C: 108%
Second compound 100 µM, first compound 0.316 µM
  viability, T/C: 103%
Second compound 100 µM, first compound 1 µM
  viability, T/C: 103%
Second compound 100 µM, first compound 3.16 µM
  viability, T/C: 107%
Second compound 100 µM, first compound 10 µM
  viability, T/C: 76.8%

## CC1COCCN1c1cc(-c2ccnn2C)c2ccnc(-c3ccn[nH]3)c2n1 (stereo not given) + CC[C@@]1(O)C(=O)OCc2c1cc1n(c2=O)Cc2cc3c(CN(C)C)c(O)ccc3nc2-1
Second compound 0.003 µM
  IC50: < 31.6 nM
Second compound 0.00949 µM
  IC50: < 31.6 nM
Second compound 0.03 µM
  IC50: < 31.6 nM
Second compound 0.0949 µM
  IC50: < 31.6 nM
Second compound 0.3 µM
  IC50: < 31.6 nM
[1]
  viability, T/C: 14.9%
[2]
  viability, T/C: 7.36%
[3]
  viability, T/C: 5.05%
[4]
  viability, T/C: 5.69%
[5]
  viability, T/C: 5.95%
[6]
  viability, T/C: 7.37%
[7]
  viability, T/C: 5.44%
[8]
  viability, T/C: 4.76%
[9]
  viability, T/C: 5.26%
[10]
  viability, T/C: 4.81%
[11]
  viability, T/C: 5.91%
[12]
  viability, T/C: 7.24%
[13]
  viability, T/C: 5.59%
[14]
  viability, T/C: 5.35%
[15]
  viability, T/C: 4.66%
[16]
  viability, T/C: 4.18%
[17]
  viability, T/C: 5.76%
[18]
  viability, T/C: 7.48%
[19]
  viability, T/C: 5.89%
[20]
  viability, T/C: 5.72%
[21]
  viability, T/C: 4.2%
[22]
  viability, T/C: 3.96%
[23]
  viability, T/C: 3.73%
[24]
  viability, T/C: 3.78%
[25]
  viability, T/C: 5.64%
[26]
  viability, T/C: 5.76%
[27]
  viability, T/C: 5.49%
[28]
  viability, T/C: 2.94%
[29]
  viability, T/C: 2.15%
[30]
  viability, T/C: 2.17%

## [2H]c1nc(C)nc([2H])c1-c1cc(NC[C@@H](C)c2cccc3c(C(=O)NC)ccnc23)ncn1 + CC[C@@]1(O)C(=O)OCc2c1cc1n(c2=O)Cc2cc3c(CN(C)C)c(O)ccc3nc2-1
Second compound 0.003 µM
  IC50: > 10000 nM
Second compound 0.00949 µM
  IC50: < 31.6 nM
Second compound 0.03 µM
  IC50: < 31.6 nM
Second compound 0.0949 µM
  IC50: < 31.6 nM
Second compound 0.3 µM
  IC50: < 31.6 nM
[1]
  viability, T/C: 51%
[2]
  viability, T/C: 62.2%
[3]
  viability, T/C: 63.5%
[4]
  viability, T/C: 52%
[5]
  viability, T/C: 66%
[6]
  viability, T/C: 51.4%
[7]
  viability, T/C: 10.3%
[8]
  viability, T/C: 8.59%
[9]
  viability, T/C: 8.43%
[10]
  viability, T/C: 7.06%
[11]
  viability, T/C: 6.95%
[12]
  viability, T/C: 9.89%
[13]
  viability, T/C: 7.23%
[14]
  viability, T/C: 6.65%
[15]
  viability, T/C: 6.56%
[16]
  viability, T/C: 8.39%
[17]
  viability, T/C: 8.61%
[18]
  viability, T/C: 8.73%
[19]
  viability, T/C: 7.9%
[20]
  viability, T/C: 7.8%
[21]
  viability, T/C: 7.91%
[22]
  viability, T/C: 7.63%
[23]
  viability, T/C: 7.79%
[24]
  viability, T/C: 9.29%
[25]
  viability, T/C: 8.56%
[26]
  viability, T/C: 8.32%
[27]
  viability, T/C: 8.45%
[28]
  viability, T/C: 8.64%
[29]
  viability, T/C: 8.15%
[30]
  viability, T/C: 8.2%
